Reference: publication PMC5584973, “Characterization of novel bangle lectin from Photorhabdus asymbiotica with dual sugar-binding specificity and its effect on host immunity” (PLoS Pathogens, 2017)

Experiments:
[1] = system: whole human blood; experiment: Oxidative burst (ROS production) in human blood; format: cell-based; details: 125 μg protein
Procedure: ROS production was measured according to previously published work in whole human blood within 15 min of sampling. The fresh human blood (2 μl diluted 40x in HBSS; 0.137 M NaCl, 5.4 mM KCl, 0.44 mM KH2PO4, 0.25 mM Na2HPO4, 4.2 mM NaHCO3, 1.0 mM MgSO4, 1.3 mM CaCl2, 5.55 mM glucose; pH 7.4) was mixed with 25 μl of PHL (125 μg in PBS for all experiments except dose-dependence assay where different dilutions of PHL were used), BSA (125 μg in PBS) or PBS (pH 7.4) and incubated for 10 min at 37°C or room temperature. After incubation, 25 μl of the luminophore (10 mM luminol) and 25 μl of activator zymosan A (2.5 mg/ml in HBSS) was added to activate ROS production in phagocytes. To detect the constitutive production of ROS, zymosan was replaced with the same volume of HBSS. Luminescence was recorded with a Chameleon V luminometer (Hidex, Finland) for two hours at 37°C or room temperature, and the integrals of reactions were compared. Results from experimental treatments (incubation of blood with PHL and BSA) were normalised to the integral of the oxidative response in the respective blood sample with PBS.

[2] = system: human serum; experiment: Antimicrobial activity of human serum against E. coli K12; details: 320 μg protein
Procedure: Samples of human blood were collected from healthy donors to tubes without anticoagulant and anonymized prior to experiments. The blood was allowed to clot for at least 10 min, centrifuged at 2,000 g, 10 min to remove the clot and the collected serum was used immediately for subsequent analysis. The serum was analysed within two hours after blood collection in all experiments.
(§1) The antimicrobial activity of human sera and insect haemolymph was measured luminometrically using the bioluminescent Gram-negative bacteria Escherichia coli K12 [59]. We have modified previously published protocol to measure the effect of PHL [60]. […] After treatment, 120 μl of bacteria working solution containing 100,000 E. coli K12 cells in PBS (pH 7.0) was added to the reaction well and the luminescence signal was recorded with a Chameleon V luminometer (Hidex, Finland) in counts per second (CPS). Reaction wells with PHL, BSA or PBS in an 80 μl volume of the same concentrations and pH as above were measured with E. coli K12 in each experiment as viability controls, not affected by human serum nor haemolymph. The luminescence produced by E. coli K12 corresponds to the bacterial viability. The antimicrobial effect of human sera and haemolymph was determined as time elapsed until the luminescence signal decreased under 1000 or 5000 CPS, respectively. […]

[3] = system: G. mellonella haemolymph; experiment: Antimicrobial activity of insect haemolymph against E. coli K12; parameters: species or system Galleria mellonella; details: 320 μg protein
Procedure: (§2) Larvae of the greater wax moth, Galleria mellonella, were reared on an artificial diet at 30 ± 1°C in constant darkness. Haemolymph was collected from the seventh instar larvae by cutting a proleg and pooling the haemolymph into a tube containing phenylthiourea (1 mg/ml in PBS; haemolymph mixed with phenylthiourea in the ratio 9:1 [v/v]) or used directly for the determination of phenoloxidase activity.
as §1

[4] = system: phenoloxidase (PO) in haemolymph of G. mellonella; experiment: Phenoloxidase activity in insect haemolymph; format: biochemical, Galleria mellonella; details: G. mellonella haemolymph; 475 μg for BSA, PLL
Procedure: as §2
PO activity was measured according to previously published studies. Haemolymph of G. mellonella (5 μl) was collected directly to 95 μl of PHL (475 μg in PBS for all experiments except dose-dependence assay where different dilutions of PHL were used), PLL (475 μg in PBS), BSA (475 μg in PBS) or PBS (pH 7.4) and incubated for 10 min at room temperature. After incubation, 40 μl of reaction mixture was transported to the microplate well and 160 μl of 3,4-dihydroxy-DL-phenylalanine (3 mg/ml in PBS) was added as substrate. The reaction was allowed to proceed for 30 min, and absorbance was measured in 2-min intervals at 492 nm with a Sunrise reader (Tecan, Switzerland). PO activity was expressed as linear increase in absorbance per minute. For the inhibition assay, PHL was pre-incubated with 0.2M L-Fuc or Me-α-L-Fuc for 10 min at room temperature prior to mixing with haemolymph.

bovine serum albumin [BSA]
ROS production (integral of luminescence) ([1]; blood challenged with activator zymosan A): 5.3±1.3 x 10^6 CPS*min
constitutive ROS production (integral of luminescence) ([1]; whole human blood A/B/O, without activator, 2 hours): 26.9±16.9 x 10^3 CPS*min
effect on antimicrobial activity against E. coli K12 [2]: not able to block the effect of antimicrobial factors
effect on antimicrobial activity against E. coli K12 [3]: not able to block the effect of antimicrobial factors
effect on PO activity (melanisation) [4]: did not have any effect
